Assay results from article PMC11174122 (Molecules, 2024).

Experiments:
[1] = tested on: PC-3M; experiment: MTT cytotoxic activity assay, PC-3M; type: cell-based; conditions: Homo sapiens, read-out: IC50 PC-3M, 48 h
Description: (§1) MCF-7, Hela, and HUCEC were cultured in DMEM (Beijing Solarbio) containing 10% FBS, 100 U/mL penicillin, and […] at 37 °C and 5% CO2. Bel-7402, A549, PC-3M were cultured in RPMI-1640 (Beijing Solarbio) media supplemented with 10% FBS (Wuhan Punuosai Life Science and Technology Co., Ltd., Wuhan, China), 100 U/mL penicillin, and […] at 37 °C and 5% CO2. MTT (Beijing Solarbio) was prepared with PBS at a concentration of 5 mg/mL. All tested drugs were prepared in a solution with a concentration of 20 mM, with dimethyl sulfoxide as the solvent.
(§2) The cells were inoculated into 96-well plates at a density of 5 × 10^3 cells/well. When the cell fusion reached 70–80%, the drug was treated for 48 h. Subsequently, 20 μL MTT was added to each well and incubated at 37 °C with 5% CO2 for 4 h. After that, the medium was discarded and 150 μL DMSO was added to each well. The absorbance was measured at 490 nm with an enzymoleter.

[2] = tested on: A549; experiment: MTT cytotoxic activity assay, A549; type: cell-based; conditions: Homo sapiens, 48 h
Description: as §1, §2

[3] = tested on: MCF-7; experiment: MTT cytotoxic activity assay, MCF-7; type: cell-based; conditions: Homo sapiens, MCF7, 48 h
Description: as §1, §2

[4] = tested on: Bel-7402; experiment: MTT cytotoxic activity assay, Bel-7402; type: cell-based; conditions: Homo sapiens, 48 h
Description: as §1, §2

[5] = tested on: Hela; experiment: MTT cytotoxic activity assay, Hela; type: cell-based, human; conditions: Homo sapiens, HeLa; MTT, 48 h
Description: as §1, §2

[6] = tested on: Hela cells; experiment: Cell clonal formation assay; type: cell-based, human; conditions: plate clone formation, compared with the control group
Description: Hela cells were inoculated into the 6-well plate at a density of 1 × 10^3 cells/well. After the cells were attached to the wall and treated with drugs for 48 h, the medium was discarded and the complete medium was added, and the liquid was changed every 4 days. After 8–9 days of culture, visible cell masses in the culture plate were observed, that is, cell cloning occurred. After clone formation, we discarded the medium, added PBS to clean it 3 times, and then added 4% paraformaldehyde along the hole to fix for 15 min. After discarding the paraformaldehyde, it was washed with PBS for 3 times, and then we added 0.1% crystal violet dye along the hole for 15 min. After dyeing, the crystal violet was recovered, washed with PBS 3–4 times, dried at room temperature, and photographed.

[7] = tested on: Hela cells; experiment: Cell scratch assay (migration); type: cell-based, human; conditions: scratch test, 48 h, compared with the control group
Description: Hela cells were inoculated into the 6-well plate at a density of 1 × 10^4 cells/well. When the cell growth reached 80–90% density, the medium was discarded, and a straight line was drawn with the gun head perpendicular to the horizontal line behind the 6-well plate. PBS was used to wash off the delimit cells twice; then, different concentrations of drugs were added to the PBS, and cell migration images of 0 h were recorded under the microscope. It was put into the incubator for 48 h and then photographed again, and the cell migration images were recorded at the same position for 48 h.

SMILES | IC50 [1] [µM] | IC50 [2] [µM] | IC50 [3] [µM] | IC50 [4] [µM] | IC50 [5] [µM] | effect on Hela cell clone proliferation [6] | effect on migration of Hela cells [7]
CN(CC(=O)Oc1ccc(/C=C/C(=O)c2ccc(OC(=O)CN(C)C(=O)OC(C)(C)C)cc2O)cc1)C(=O)OC(C)(C)C [Compound 5, (E)-4-(3-(4-((N-(tert-butoxycarbonyl)-N-methylglycyl)oxy)-2-hydroxyphenyl)-3-oxoprop-1-en-1-yl)phenyl N-(tert-butoxycarbonyl)-N-methylglycinate] | > 200 | > 200 | > 200 | > 200 | > 200 |  | 
CC(C)C[C@H](NC(=O)OC(C)(C)C)C(=O)Oc1ccc(/C=C/C(=O)c2ccc(OC(=O)[C@H](CC(C)C)NC(=O)OC(C)(C)C)cc2O)cc1 [Compound 1, (E)-4-(3-(4-(((tert-butoxycarbonyl)leucyl)oxy)-2-hydroxyphenyl)-3-oxoprop-1-en-1-yl)phenyl (tert-butoxycarbonyl)leucinate] | > 200 | > 200 | > 200 | > 200 | > 200 |  | 
CC(C)[C@H](NC(=O)OC(C)(C)C)C(=O)Oc1ccc(/C=C/C(=O)c2ccc(OC(=O)[C@@H](NC(=O)OC(C)(C)C)C(C)C)cc2O)cc1 [Compound 3, (E)-4-(3-(4-(((tert-butoxycarbonyl)valyl)oxy)-2-hydroxyphenyl)-3-oxoprop-1-en-1-yl)phenyl (tert-butoxycarbonyl)valinate] | > 200 | > 200 | > 200 | > 200 | > 200 |  | 
CC(C)(C)OC(=O)NC(C(=O)Oc1ccc(/C=C/C(=O)c2ccc(O)cc2O)cc1)c1ccccc1 [Compound 19, (E)-4-(3-(2,4-dihydroxyphenyl)-3-oxoprop-1-en-1-yl)phenyl(R)-2-((tert-butoxycarbonyl)amino)-2-phenylacetate] | 108 | 93.8 | 153 | 66.9 | 74.9 |  | 
CC(NC(=O)OC(C)(C)C)C(=O)Oc1ccc(C=CC(=O)c2ccc(O)cc2O)cc1 [Compound 11, (E)-4-(3-(2,4-dihydroxyphenyl)-3-oxoprop-1-en-1-yl)phenyl(tert-butoxycarbonyl)-D-alaninate] | 122 | 100 | 160 | 87.6 | 99.9 |  | 
CC(C)(C)OC(=O)N[C@@H](CCc1ccccc1)C(=O)Oc1ccc(/C=C/C(=O)c2ccc(O)cc2O)cc1 [Compound 13, (E)-4-(3-(2,4-dihydroxyphenyl)-3-oxoprop-1-en-1-yl)phenyl(S)-2-((tert-butoxycarbonyl)amino)-4-phenylbutanoate] | 37.4 | 48.9 | 60.5 | 35.3 | 29.2 |  | 
CC(C)(C)OC(=O)NC(C(=O)Oc1ccc(/C=C/C(=O)c2ccc(OC(=O)C(NC(=O)OC(C)(C)C)c3ccccc3)cc2O)cc1)c1ccccc1 [Compound 18, 4-((E)-3-(4-((S)-2-((tert-butoxycarbonyl)amino)-2-phenylacetoxy)-2-hydroxyphenyl)-3-oxoprop-1-en-1-yl)phenyl(R)-2-((tert-butoxycarbonyl)amino)-2-phenylacetate] | > 200 | > 200 | > 200 | > 200 | > 200 |  | 
Cc1ccc(C[C@@H](NC(=O)OC(C)(C)C)C(=O)Oc2ccc(/C=C/C(=O)c3ccc(O)cc3O)cc2)cc1 [Compound 23, (E)-4-(3-(2,4-dihydroxyphenyl)-3-oxoprop-1-en-1-yl)phenyl(R)-2-((tert-butoxycarbonyl)amino)-3-(p-tolyl)propanoate] | 83.6 | 80.9 | 130 | 63.5 | 72.4 |  | 
CC(C)(C)OC(=O)NC(C(=O)Oc1ccc(/C=C/C(=O)c2ccc(OC(=O)C(NC(=O)OC(C)(C)C)C3CCCC3)cc2O)cc1)C1CCCC1 [Compound 6, 4-((E)-3-(4-((S)-2-((tert-butoxycarbonyl)amino)-2-cyclopentylacetoxy)-2-hydroxyphenyl)-3-oxoprop-1-en-1-yl)phenyl(R)-2-((tert-butoxycarbonyl)amino)-2-cyclopentylacetate] | > 200 | > 200 | > 200 | > 200 | > 200 |  | 
CC(C)(C)OC(=O)N[C@@H](Cc1ccccc1)C(=O)Oc1ccc(C(=O)/C=C/c2ccc(OC(=O)[C@@H](Cc3ccccc3)NC(=O)OC(C)(C)C)cc2)c(O)c1 [Compound 20, 4-((E)-3-(4-(((tert-butoxycarbonyl)-D-phenylalanyl)oxy)phenyl)acryloyl)-3-hydroxyphenyl (tert-butoxycarbonyl)-L-phenylalaninate] | > 200 | > 200 | > 200 | > 200 | > 200 |  | 
CCC(C)CC(NC(=O)OC(C)(C)C)C(=O)Oc1ccc(/C=C/C(=O)c2ccc(OC(=O)C(CC(C)CC)NC(=O)OC(C)(C)C)cc2O)cc1 (centres unmarked) [Compound 2, (E)-4-(3-(4-((2-((tert-butoxycarbonyl)amino)-4-methylhexanoyl)oxy)-2-hydroxyphenyl)-3-oxoprop-1-en-1-yl)phenyl 2-((tert-butoxycarbonyl)amino)-4-methylhexanoate] | > 200 | > 200 | > 200 | > 200 | > 200 |  | 
CC(C)(C)OC(=O)N[C@H](Cc1ccccc1Br)C(=O)Oc1ccc(/C=C/C(=O)c2ccc(O)cc2O)cc1 [Compound 15, (E)-4-(3-(2,4-dihydroxyphenyl)-3-oxoprop-1-en-1-yl)phenyl(R)-3-(2-bromophenyl)-2-((tert-butoxycarbonyl)amino)propanoate] | 30.2 | 42.6 | 50.9 | 38.4 | 27.4 |  | 
CC(C)(C)OC(=O)N1CCCC1C(=O)Oc1ccc(/C=C/C(=O)c2ccc(OC(=O)[C@@H]3CCCN3C(=O)OC(C)(C)C)cc2O)cc1 (some centres unmarked) [Compound 4, (E)-2-(4-(3-(4-(((tert-butoxycarbonyl)prolyl)oxy)-2-hydroxyphenyl)-3-oxoprop-1-en-1-yl)phenyl) 1-(tert-butyl) pyrrolidine-1,2-dicarboxylate] | > 200 | > 200 | > 200 | > 200 | > 200 |  | 
CC(C)(C)OC(=O)NC(C(=O)Oc1ccc(/C=C/C(=O)c2ccc(OC(=O)C(NC(=O)OC(C)(C)C)C3CCCCC3)cc2O)cc1)C1CCCCC1 [Compound 8, 4-((E)-3-(4-((R)-2-((tert-butoxycarbonyl)amino)-2-cyclohexylacetoxy)-2-hydroxyphenyl)-3-oxoprop-1-en-1-yl)phenyl(S)-2-((tert-butoxycarbonyl)amino)-2-cyclohexylacetate] | > 200 | > 200 | > 200 | > 200 | > 200 |  | 
O=C(/C=C/c1ccc(O)cc1)c1ccc(O)cc1O [ISL, Isoliquiritigenin, reference compound] | 142 | 123 | 134 | 160 | 126 | inhibit Hela cell proliferation | inhibit the migration of Hela cells
